For the experiment, the target named is T1, human RXFP1 (Homo sapiens, UniProt Q9HBX9).
T1 sequence (Q9HBX9 1-757): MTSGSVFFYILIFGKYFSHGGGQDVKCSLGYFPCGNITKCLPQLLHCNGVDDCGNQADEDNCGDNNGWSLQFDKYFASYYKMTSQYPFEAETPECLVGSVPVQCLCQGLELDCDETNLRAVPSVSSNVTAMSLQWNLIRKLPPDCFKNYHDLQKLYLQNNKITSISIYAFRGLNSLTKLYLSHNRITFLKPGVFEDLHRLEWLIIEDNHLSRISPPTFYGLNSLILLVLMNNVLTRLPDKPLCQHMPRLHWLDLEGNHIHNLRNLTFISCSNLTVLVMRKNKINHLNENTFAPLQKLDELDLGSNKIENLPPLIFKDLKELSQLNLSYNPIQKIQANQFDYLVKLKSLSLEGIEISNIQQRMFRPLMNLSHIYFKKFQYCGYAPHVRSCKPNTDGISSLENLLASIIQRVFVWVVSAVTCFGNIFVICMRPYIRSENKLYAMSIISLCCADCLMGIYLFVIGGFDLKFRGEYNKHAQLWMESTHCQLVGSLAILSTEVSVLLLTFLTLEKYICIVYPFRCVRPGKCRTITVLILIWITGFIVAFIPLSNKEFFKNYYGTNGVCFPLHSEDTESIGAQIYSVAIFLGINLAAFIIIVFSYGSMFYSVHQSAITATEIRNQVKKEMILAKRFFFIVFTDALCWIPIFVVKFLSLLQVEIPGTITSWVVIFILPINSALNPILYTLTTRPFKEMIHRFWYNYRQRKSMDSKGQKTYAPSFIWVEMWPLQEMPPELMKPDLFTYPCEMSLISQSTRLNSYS
Nature of the experiment: RXFP1 Hu cAMP (Test A). The format is cell-based. On the set-up: expressed in transfected cells; host or cells: Jump-In T-REx CHO-K1 cells (ThermoFisher), induced with 10 ng/ml doxycycline for 24 h. As to conditions: RXFP1 Hu cAMP; for EC50: read-out: Test A EC50. The text has this:
To screen for modulators of hRXFP1, an assay identifying compounds that stimulate cAMP production via the Gs-coupled hRXFP1 receptor was used. cAMP HiRange HTRF kit (available from CisBio Bioassays, France; catalogue number 62AM6PEJ) was employed in large according to manufacturer's recommendations for detection of cAMP. The HTRF method is a competitive immunoassay between native cAMP produced by cells and cAMP labeled with the dye d2. The tracer binding is visualized with a cryptate labeled antibody for cAMP and the signal is thus inversely proportional to the amount of produced cAMP.
Cells: Jump-In™ T-REx™ CHO-K1 Cells (ThermoFisher) stably transfected with human RXFP1 was employed. Cells were induced to express human RXFP1 by treatment with 10 ng/ml doxycycline for 24 h. Cells were then cryopreserved for long term storage.
HTRF detection reagents: cAMP-d2 and anti-cAMP cryptate reconstituted according to CisBio instructions were diluted 1:40 in lysis buffer provided with the HTRF-kit.
3. 4 μL assay buffer with 1 mM IBMX (0.5 mM final concentration) to block phosphodiesterases was added with Multidrop Combi (ThermoFisher).
6. 4 μL cAMP-d2 in lysis buffer was added with Multidrop Combi.
7. 4 μL anti-cAMP cryptate in lysis buffer was added with Multidrop Combi
8. 2 h incubation at room temperature
Using a cAMP standard curve, HTRF data was converted to amount cAMP produced in the samples which was subsequentially used for calculation of concentration responses. Concentration response data were fitted with a four parameter logistic fit, the Hill equation. The results from the assay are reported in Table 36 as EC50 (μM) and Sinf (%).
Where the assay was run multiple times for the same compound, the geometric mean is reported.
Sinf is the fitted activity level, efficacy, at infinite concentration of test compound. To facilitate comparison of efficacy data, efficacy was normalized to % effect of the response stimulated by a saturating concentration of relaxin (1 nM). Where the assay was run multiple times for the same compound, the arithmetic mean is reported.

Consider `COc1cc(F)c(O[C@H]2CC[C@@](C)(C(=O)O)CC2)cc1C(=O)N[C@@H]1COC[C@@H]1C(=O)Nc1cccc(S(=O)(=O)C(F)(F)F)c1` (racemic) [Example 342], for which the “Test A Sinf” value came out at 132% and the EC50 came to 550 nM.

Take `COc1cc(F)c(O[C@H]2CC[C@@](C)(C(=O)O)CC2)cc1C(=O)N[C@@H]1COC[C@@H]1C(=O)Nc1ccc(F)c(S(F)(F)(F)(F)F)c1` (racemic) [Example 344]: the “Test A Sinf” value was determined as 93% and the concentration giving a half-maximal response (EC50) came out at 34 nM.

For `COc1cc(F)c(O[C@H]2CC[C@@](C)(C(=O)O)CC2)cc1C(=O)N[C@@H]1COC[C@@H]1C(=O)NCC(C)(C)C` (racemic) [Example 345], the 50% effective concentration (EC50) was greater than 40000 nM.

For `COc1cc(F)c(O[C@H]2CC[C@@](C)(C(=O)O)CC2)cc1C(=O)N[C@@H]1CC[C@@H]1C(=O)NCC(C)(C)C` (racemic) [Example 346], the “Test A Sinf” value was found to be 96%.

Regarding `COc1cc(F)c(O[C@H]2CC[C@@](C)(C(=O)O)CC2)cc1C(=O)N[C@@H]1CC[C@@H]1C(=O)Nc1ccc(F)c(S(F)(F)(F)(F)F)c1` (racemic) [Example 347], the “Test A Sinf” value came out at 115% and the EC50 was determined as 6.4 nM.

Take `COc1cc(C#N)c(O[C@H]2CC[C@@](C)(C(=O)O)CC2)cc1C(=O)N[C@@H]1CC[C@@H]1C(=O)NCC1(C)CCC1` (racemic) [Example 348]: the “Test A Sinf” value is reported as 101% and the half-maximal effective concentration (EC50) was 560 nM.

Take `COc1cc(F)c(O[C@H]2CC[C@@](C)(C(=O)O)CC2)cc1C(=O)N[C@@H]1COCC[C@@H]1C(=O)Nc1ccc(F)c(S(F)(F)(F)(F)F)c1` (racemic) [Example 349]: the “Test A Sinf” value was found to be 113% and the EC50 worked out at 1800 nM.

Turning to `COc1cc(F)c(O[C@H]2CC[C@@](C)(C(=O)O)CC2)cc1C(=O)N[C@@H]1COC[C@@H]1C(=O)NCC1(C)CCC1` (racemic) [Example 350], the “Test A Sinf” value was determined as 97% and the concentration giving a half-maximal response (EC50) is 3900 nM.

As to `COc1cc(F)c(O[C@H]2CC[C@@](C)(C(=O)O)CC2)cc1C(=O)N[C@@H]1CCCCC[C@@H]1C(=O)Nc1cccc(S(=O)(=O)C(F)(F)F)c1` (racemic) [Example 354], the “Test A Sinf” value was found to be 95% and the concentration for a half-maximal effect (EC50) was 11 nM.

For the compound `COc1cc(F)c(O[C@H]2CC[C@@](C)(C(=O)O)CC2)cc1C(=O)N[C@H]1[C@@H](C(=O)NCC2(C)CCC2)[C@@H]2CC[C@H]1O2` (racemic) [Example 358], the “Test A Sinf” value was determined as 99% and the EC50 was found to be 5100 nM.

Consider `COc1cc(F)c(O[C@H]2CC[C@@](C)(C(=O)O)CC2)cc1C(=O)N[C@@H]1[C@@H](OC)CC[C@@H]1C(=O)Nc1cccc(S(=O)(=O)C(F)(F)F)c1` (racemic) [Example 359], for which the “Test A Sinf” value was determined as 91% and the EC50 was determined as 170 nM.

As to `COc1cc(F)c(O[C@H]2CC[C@@](CO)(C(=O)O)CC2)cc1C(=O)N[C@@H]1[C@@H]2CC[C@@H](C2)[C@@H]1C(=O)Nc1cccc(S(=O)(=O)C(F)(F)F)c1` (racemic) [Example 366], the “Test A Sinf” value worked out at 103% and the concentration for a half-maximal effect (EC50) came to 2.2 nM.

As to `COc1cc(F)c(O[C@H]2CC[C@@](C)(C(=O)O)CC2)cc1C(=O)N[C@@H]1[C@@H]2CC[C@@H](C2)[C@@H]1C(=O)Nc1cccc(S(=O)(=O)C(F)(F)F)c1` (racemic) [Example 367], the “Test A Sinf” value is 110% and the EC50 is 3.2 nM.

As for `COc1cc(F)c(O[C@H]2CC[C@@](C)(C(=O)O)CC2)cc1C(=O)N[C@@H]1[C@@H]2CC[C@@H](C2)[C@@H]1C(=O)Nc1ccc(F)c(S(F)(F)(F)(F)F)c1` (racemic) [Example 371], the “Test A Sinf” value was 125% and the concentration giving a half-maximal response (EC50) came out at 1.1 nM.

`COc1cc(F)c(O[C@H]2CC[C@@](C)(C(=O)O)CC2)cc1C(=O)N[C@@H]1[C@@H](O)[C@@H](O)C[C@@H]1C(=O)Nc1cccc(S(=O)(=O)C(F)(F)F)c1` (racemic) [Example 394, (1R,4s)-4-(5-(((1SR,2RS,3SR,5SR)-2,3-Dihydroxy-5-((3-((trifluoromethyl)sulfonyl)phenyl)carbamoyl)cyclopentyl)carbamoyl)-2-fluoro-4-methoxyphenoxy)-1-methylcyclohexane-1-carboxylic acid]: the 50% effective concentration (EC50) was greater than 40000 nM.

In the case of `COc1cc(F)c(O[C@H]2CC[C@@](C)(C(=O)O)CC2)cc1C(=O)N[C@@H]1[C@H]2OCO[C@H]2C[C@@H]1C(=O)Nc1cccc(S(=O)(=O)C(F)(F)F)c1` (racemic) [Example 395, (1R,4s)-4-(2-Fluoro-4-methoxy-5-(((3aRS,4SR,5SR,6aSR)-5-((3-((trifluoromethyl)sulfonyl)phenyl)carbamoyl)tetrahydro-4H-cyclopenta[d][1,3]dioxol-4-yl)carbamoyl)phenoxy)-1-methylcyclohexane-1-carboxylic acid], the “Test A Sinf” value is 101% and the EC50 amounted to 31 nM.

On to `COc1cc(F)c(O[C@H]2CC[C@@](C)(C(=O)O)CC2)cc1C(=O)N[C@H]1[C@@H](C(=O)Nc2cccc(S(=O)(=O)C(F)(F)F)c2)CC[C@H]1OC` (racemic) [Example 397, (1R,4s)-4-(2-Fluoro-4-methoxy-5-(((1SR,2RS,5SR)-2-methoxy-5-((3-((trifluoromethyl)sulfonyl)phenyl)carbamoyl)cyclopentyl)carbamoyl)phenoxy)-1-methylcyclohexane-1-carboxylic acid], for which the EC50 was greater than 40000 nM.

As to `COc1cc(F)c(O[C@H]2CC[C@@](O)(C(=O)O)CC2)cc1C(=O)N[C@@H]1[C@@H]2CC[C@@H](C2)[C@@H]1C(=O)Nc1cccc(S(=O)(=O)C(F)(F)F)c1` (racemic) [Example 422, (1R,4r)-4-(2-Fluoro-4-methoxy-5-(((1RS,2RS,3SR,4SR)-3-((3-((trifluoromethyl)sulfonyl)phenyl)carbamoyl)bicyclo[2.2.1]heptan-2-yl)carbamoyl)phenoxy)-1-hydroxycyclohexane-1-carboxylic acid], the “Test A Sinf” value came out at 102% and the 50% effective concentration (EC50) was 86 nM.

As to `COc1cc(F)c(O[C@@H]2C[C@@H]3[C@H](C2)[C@H]3C(=O)O)cc1C(=O)N[C@@H]1[C@H]2CC[C@H](C2)[C@@H]1C(=O)NCC1(C)CCC1` (racemic) [Example 425, (1RS,3SR,5SR,6RS)-3-(2-Fluoro-4-methoxy-5-(((1S,2R,3S,4R)-3-(((1-methylcyclobutyl)methyl)carbamoyl)bicyclo[2.2.1]heptan-2-yl)carbamoyl)phenoxy)bicyclo[3.1.0]hexane-6-carboxylic acid], the “Test A Sinf” value is 78%.

With `COc1cc(F)c(O[C@H]2C[C@@H]3[C@H](C2)[C@H]3C(=O)O)cc1C(=O)N[C@@H]1[C@H]2CC[C@H](C2)[C@@H]1C(=O)NCC1(C)CCC1` (racemic) [Example 426, (1RS,3SR,5SR,6RS)-3-(2-Fluoro-4-methoxy-5-(((1S,2R,3S,4R)-3-(((1-methylcyclobutyl)methyl)carbamoyl)bicyclo[2.2.1]heptan-2-yl)carbamoyl)phenoxy)bicyclo[3.1.0]hexane-6-carboxylic acid], the half-maximal effective concentration (EC50) was greater than 40000 nM.

For the compound `COc1ccc(Oc2ccc(C(=O)O)cc2)cc1C(=O)N[C@H]1[C@@H](C(=O)Nc2cccc(S(=O)(=O)C(F)(F)F)c2)[C@@H]2C=C[C@H]1C2` (racemic) [Example 427], the “Test A Sinf” value worked out at 86% and the EC50 came to 680 nM.

As for `COc1ccc(Oc2cccc(C(=O)O)c2)cc1C(=O)N[C@H]1[C@@H](C(=O)Nc2cccc(S(=O)(=O)C(F)(F)F)c2)[C@@H]2C=C[C@H]1C2` (racemic) [Example 428], the “Test A Sinf” value is given as 80% and the EC50 was 5100 nM.

Turning to `COc1ccc(Oc2ccccc2C(=O)O)cc1C(=O)N[C@H]1[C@@H](C(=O)Nc2cccc(S(=O)(=O)C(F)(F)F)c2)[C@@H]2C=C[C@H]1C2` (racemic) [Example 429], the EC50 is greater than 40000 nM.

By EC50 is commonly meant the concentration giving half of the maximal effect.

These data come from US11667602B2, “Compounds and their use” (AstraZeneca AB, priority 2020, dated 2023).
